Literature values as cited in paper PMC11336009 (GeroScience, 2024).

Test system: P-glycoprotein
Settings: at the level of the kidney; cited from earlier work

N[C@@H](CC(=O)N1CCn2c(nnc2C(F)(F)F)C1)Cc1cc(F)c(F)cc1F [Sitagliptin]
Substrate for the multi-drug resistance transporter P-glycoprotein: substrate
